pIC50: −log10 of the molar value. Where two headings read alike, the source gives them in different places.
How the values were obtained:
[1] = system: A549 human lung cancer cells; experiment: Trypan Blue cell viability/growth assay, A549 cells; format: cell-based; details: for Potentiation of anti-cancer activity by esterization: ester vs original acid; for fold more potent than original acid, growth of A549 cells: ester vs original acid (ARC, CA or Ketorolac)
Method: (§1) A. Cell Lines: Human lung cancer (A549) cells carrying an oncogenic K-RAS mutant or murine melanoma (B16F10) cells
(§2) B. Cell seeding in 96 well plate: In culture medium D-MEM with or without 10% fetal bovine serum.
(§3) C. Inhibitor Stocks in DMSO (100 mM)
(§4) D. Trypan Blue Assay for Cell Viability/Growth (4): The most commonly used MTT assay for cell viability/growth is not feasible for cells treated with triazolyl derivatives, mainly because these compounds are reduced by mitochondrial reductase in viable cells, just like MTT, and converted to a purple compound which would clearly interfere with the colorimetry on which MTT assay depends. Thus, a more classic method called Trypan Blue exclusion assay should be used for determining cell viability/growth of cells treated with all triazolyl derivatives. In this assay, only dead cells are stained with Trypan Blue, while viable cells exclude this blue dye.
(§5) The assay was conducted as previously described. Briefly, A549 or B16F10 cells were seeded at 2×10^4 cells/well in 96 well plate for 24 hrs in the above medium, and then treated with one of the tested compounds in the same medium for 96 hrs. Cell were detached from the plate by a protease called accutase, and stained with Trypan blue, and the number of unstained (viable) cells was counted in a hemocytometer.

EMT6 breast cancer cells = experiment: Cell-permeability (intracellular uptake) assay by HPLC; format: in vitro ADME; details: for fold more cell-permeable than original acid: 100 uM, uptake during first 1 hr, lower bound
Method: For measuring the uptake of both original acids and their esters into cells, a drug-resistant breast cancer cell line (EMT6) was chosen, as it survives the treatment with either acids or their esters at 100 uM for 24 hrs. The uptake of each compound (100 uM) into 1×10^5 cells mainly during the first 1 hr was quantitated by separation of either original acids or their esters taken by cells through HPLC column chromatography, and the amount of each compound was estimated by photometry at the wavelength 322 nm.

PAK1 = biological target: T1, PAK1 (Homo sapiens, UniProt Q13153); experiment: Anti-PAK1 activity in cell culture, Macaroni-Western (IP) ATP-Glo kinase assay; format: cell-based
T1 construct: endogenous in cells; host or cells: A549 human lung cancer cells
Method: A. Cell line: Human lung cancer (A549) cells.
B. Cell seeding in 6-well plate with the culture medium (D-MEM).
C. Inhibitor Stocks in DMSO (100 mM).
D. “Macaroni-western” (IP) ATP-Glo kinase assay: The kinase activity of PAK1 in A549 (or B16F100 cells was measured by a method called “Macaroni-Western” (IP) ATP-Glo kinase assay. Briefly, cells (2×10^5 cells/mL) were pre-cultured on 6-well plate for 24 hrs in the medium. Then cells were treated with a test compound in the same medium for additional 24 hrs. Cells were disrupted by lysis buffer containing 50 mM Tris-HCl pH 7.5 and 150 mM NaCl and 1% Triton-X. For the immunoprecipitation (IP) of PAK1, the cleared cell lysates were incubated with anti-PAK1 IgG (1:50 dilution) and protein A-agarose beads for 1-2 hrs in cold room with continuous shaking by a rotary mixer (Nissin, Suginami-ku, Tokyo, Japan). The resultant IP (PAK1) from each lysate was incubated with ATP-Glo kinase assay kit (Promega) in the presence of ATP and MBP (myelin basic protein) for 1 hr at 37° C., and the remaining ATP level was measured by the ATP-dependent Luciferin-Luciferase reaction which eventually generates a luminescence. The final suspension was centrifuged, and the supernatant was transferred to 96-well plate for reading. Luminescence was recorded by MTP-880Lab microplate reader (Corona, Hitachinaka-ku, Ibaraki, Japan) with an integration time of 0.5 s per well.

melanoma (B16F10) cells [2] = experiment: Trypan Blue cell viability/growth assay, B16F10 cells; format: cell-based, murine
Method: as §1, §2, §3, §4, §5

recombinant human COX-2 = biological target: T2, recombinant human COX-2 (Homo sapiens, UniProt P35354); experiment: In vitro anti-COX-2 activity; format: biochemical
T2 sequence (P35354 18-604): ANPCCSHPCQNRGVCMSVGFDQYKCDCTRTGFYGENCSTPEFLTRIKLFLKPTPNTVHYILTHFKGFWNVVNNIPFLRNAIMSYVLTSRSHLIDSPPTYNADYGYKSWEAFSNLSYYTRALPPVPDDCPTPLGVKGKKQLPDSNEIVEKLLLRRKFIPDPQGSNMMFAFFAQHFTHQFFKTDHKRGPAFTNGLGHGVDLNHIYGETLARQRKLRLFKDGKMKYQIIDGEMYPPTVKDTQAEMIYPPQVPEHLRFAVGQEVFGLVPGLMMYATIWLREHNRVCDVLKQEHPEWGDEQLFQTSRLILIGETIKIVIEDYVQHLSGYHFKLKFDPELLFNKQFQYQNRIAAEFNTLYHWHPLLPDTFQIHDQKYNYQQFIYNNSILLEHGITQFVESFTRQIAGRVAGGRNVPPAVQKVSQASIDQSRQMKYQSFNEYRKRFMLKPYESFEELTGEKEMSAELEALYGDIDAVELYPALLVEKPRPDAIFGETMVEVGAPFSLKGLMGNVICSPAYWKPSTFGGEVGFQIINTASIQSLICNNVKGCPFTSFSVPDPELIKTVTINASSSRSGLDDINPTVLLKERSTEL
Method: The effect of Ketorolac and PRC-15K (both in racemic form) on COX-2 was assayed in vitro, essentially according to the procedure previously published (5). Briefly, the recombinant human COX-2 was treated with either Ketorolac or PRC-15K at concentrations ranging 5-200 nM for 2 or 5 min (depending on the chemical nature of the test compounds) at room temperature in the presence of arachidonic acid, to measure the remaining COX-2 activity at 590 nm. The COX-2 activity without these test chemicals was used as the negative control for calculating their anti-COX-2 activity.

[3] = ester vs parent acid (CA or UA); cited from earlier work
melanoma (B16F10) cells [4] = experiment: Melanin content assay (PAK1-dependent melanogenesis), B16F10 cells; format: cell-based, murine; details: alpha-MSH 100 nM stimulated; read-out: IC50 against the PAK1-dependent melanogenesis of melanoma (B16F10) cells
Method: A. Cell line: Murine melanoma (B16F10) cells.
B. Cell seeding in 96 well plate: In culture medium D-MEM supplemented with 10% […] FBS (fetal bovine serum) and 1% penicillin/streptomycin (10,000 U/mL and 100 μg/mL). 2×10^4 cells were seeded in each well of 96 well plate in the medium at 37° C. for 24 hrs in a humidified atmosphere containing 5% CO2.
C. Inhibitor Stocks in DMSO (100 uM).
E. Melanin content Assay (4): The assay was performed as previously described. Cells were seeded in a 96-well plate at a density 5×10^4 cells/well in culture medium containing D-MEM supplemented with 10% FBS, 1% penicillin/streptomycin, and cultured for 24 hrs. Then, the cells were treated with a melanogenic stimulating hormone called α-MSH (100 nM), and treated with one of tested compounds for 48 hrs. After the medium was removed, cells were dissolved in 100 μL of 1 N NaOH. The mixture was heated at 90° C. for 1 hr, and the melanin content was estimated by reading the absorbance at 405 nm.

[5] = system: Human follicle dermal papilla (HFDP) cells; experiment: Hair cell growth promoting (anti-alopecia) Trypan Blue assay, HFDP cells; format: cell-based
Method: A. Cell line: Human follicle dermal papilla (HFDP) cells.
B. Cell seeding in 96 well plate: In culture medium D-MEM medium containing 50 mL of papilla cell growth medium (PCGM), 0.5 mL of fetal calf serum (FSC), 0.5 mL of BPE, 0.25 mL of Cyp, and 0.25 mL of ITT in 51.5 mL total volume.
C. Inhibitor Stocks in DMSO (100 μM).
D. Trypan Blue assay for cell viability/growth (4): HFDP cells were collected and diluted in medium containing Dulbecco's modified minimum essential medium (D-MEM) and 10% fetal bovine serum (FBS) at cell density of 1×10^4 cell/mL. Then, 200 μL of cell suspension (2,000 cells/well) was transferred into each well of collagen-coated 96 well plate, and cells were incubated for 37° C., under 5% CO2 for 3 days. The medium was removed, and 200 μL of samples prepared in D-MEM only was added. After 4 days incubation, cell were detached from the plate by a protease called accutase, and stained with Trypan blue, and the number of unstained (viable) cells was counted in a hemocytometer.

[6] = Homo sapiens, growth of A459 lung cancer cell line (so in the source), read-out: IC50 of Original Acids
[7] = 96 hrs treatment, Trypan Blue exclusion, read-out: IC50 against the growth of A549 human lung cancer cells

T1 sequence (Q13153 whole entry): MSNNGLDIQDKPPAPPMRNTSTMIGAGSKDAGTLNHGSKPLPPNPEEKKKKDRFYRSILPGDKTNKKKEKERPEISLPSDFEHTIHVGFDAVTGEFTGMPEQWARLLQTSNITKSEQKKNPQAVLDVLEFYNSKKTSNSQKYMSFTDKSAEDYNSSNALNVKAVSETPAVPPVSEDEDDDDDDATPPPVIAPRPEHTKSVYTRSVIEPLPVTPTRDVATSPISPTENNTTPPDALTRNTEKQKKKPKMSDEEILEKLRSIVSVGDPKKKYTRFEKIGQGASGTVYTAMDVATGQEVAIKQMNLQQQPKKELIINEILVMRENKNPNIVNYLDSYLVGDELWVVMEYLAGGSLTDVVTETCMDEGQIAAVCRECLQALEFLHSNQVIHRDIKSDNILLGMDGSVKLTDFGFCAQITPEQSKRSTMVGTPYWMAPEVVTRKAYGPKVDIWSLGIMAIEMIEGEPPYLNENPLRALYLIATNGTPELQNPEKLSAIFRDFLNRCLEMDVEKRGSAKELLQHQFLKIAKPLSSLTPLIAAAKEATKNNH

O=C(c1ccccc1)c1ccc2n1CCC2C(=O)O (racemic) [Ketorolac, 5-benzoyl-2,3-dihydro-1H-pyrrolizine-1-carboxylic acid, reference compound]
pIC50 ([1]; Homo sapiens, A549, racemic mixture, our unpublished observation, read-out: IC50 against the growth of human cancer cells): 4.89
pIC50 [1, 6]: 4.89

COc1ccccc1-n1cc(COC(=O)C2CCn3c(C(=O)c4ccccc4)ccc32)nn1 (racemic) [PRC-15K]
fold more cell-permeable than original acid (EMT6 breast cancer cells): at least 10 fold
inhibition at 0.07 µM (PAK1; at 70 nM): ~50%
fold more potent than Ketorolac, anti-PAK1 activity in cell culture (PAK1; vs Ketorolac): over 30 fold
pIC50 (melanoma (B16F10) cells [2]; Mus musculus, B16-F10, read-out: IC50 against the PAK1-independent growth of melanoma (B16F10) cells): 8.30
fold more potent than Ketorolac, growth of B16F10 cells (melanoma (B16F10) cells [2]; vs Ketorolac): over 6000 fold
pIC50 ([1]; A549, 50/50 racemic mixture, growth of human cancer cells, read-out: IC50): ~7.62
pIC50 ([1]; Homo sapiens, A549, 96 hrs treatment, Trypan Blue exclusion, read-out: IC50 against the growth of A549 human lung cancer cells): 7.62
pIC50 ([1]; Homo sapiens, growth of A459 lung cancer cell line (so in the source), read-out: IC50 of Esters): 7.62
Potentiation of anti-cancer activity by esterization [1]: (>500 fold)
fold more potent than original acid, growth of A549 cells [1]: over 500 fold
times potent as much as compound 7 ([1]; vs racemic ketorolac): more than 500 times
pIC50 (recombinant human COX-2; in vitro, racemic form, read-out: IC50 against human COX-2): 8.22
fold more potent than Ketorolac, anti-COX-2 (recombinant human COX-2; vs Ketorolac): over 20 fold

CC(C)=CCc1cc(C=CC(=O)O)cc(CC=C(C)C)c1O [ARC, 3,5-diprenyl-4-hydroxycinnamic acid, reference compound]
pIC50 [1, 6]: 4.60

O=C(O)/C=C/c1ccc(O)c(O)c1 [CA, caffeic acid, reference compound]
pIC50 [1, 6]: 4.00

O=C(/C=C/c1ccc(O)c(O)c1)OCCc1ccccc1 [CAPE, caffeic acid phenethyl ester]
fold more potent (cell-permeable) than parent acid [3]: 10 fold

COc1ccccc1-n1cc(COC(=O)/C=C/c2cc(CC=C(C)C)c(O)c(CC=C(C)C)c2)nn1 [PRC-15A]
fold more cell-permeable than original acid (EMT6 breast cancer cells): at least 8 fold
anti-PAK1 activity in cell culture, inhibition (PAK1; at 1 mM): around 45%
pIC50 (melanoma (B16F10) cells [4]): 6.60
ED for the growth of human hair (HFDP) cells ([5]; growth promotion): 20 nM
fold more potent than ARC, growth of HFDP cells ([5]; vs ARC): 1000 fold
pIC50 [1, 7]: 6.60
Potentiation of anti-cancer activity by esterization [1]: (100 fold)
fold more potent than original acid, growth of A549 cells [1]: 100 fold

COc1ccccc1-n1cc(COC(=O)/C=C/c2ccc(O)c(O)c2)nn1 [PRC-15C]
fold more cell-permeable than original acid (EMT6 breast cancer cells): at least 20 fold
fold more cell-permeable than original acid, probable upper estimate (EMT6 breast cancer cells; 'probably up to'): up to 70 fold
anti-PAK1 activity in cell culture, inhibition (PAK1; at 1 μM): around 35%
pIC50 (melanoma (B16F10) cells [4]): 6.65
pIC50 [1, 7]: 6.65
Potentiation of anti-cancer activity by esterization [1]: (>400 fold)
fold more potent than original acid, growth of A549 cells [1]: over 400 fold

Reference: patent US10058618B2, “PAK1-blocking 1,2,3-triazolyl esters” (priority 2016, dated 2018)
